ChEMBL document CHEMBL6120978, “Anticancer activity of salinomycin quaternary phosphonium salts” (Eur J Med Chem, 2025)
≈ marks a conversion by molar mass, not a printed value. Calls of active or inactive are those of the source. The calls are words filed in the database; no cut-off is given here.

What was measured:
MDA-MB-231 [1] = experiment: Induction of cell cycle arrest in human MDA-MB-231 cells assessed as inhibition of cell division at IC50 incubated for 24 hrs by propidium iodide staining based flow cytometry analysis; assay type: functional
[2] = Cytotoxicity against human HaCaT cells incubated for 72 hrs by MTT assay; assay type: toxicity, cell-based
Staphylococcus aureus [3] = experiment: Antimicrobial activity against Staphylococcus aureus ATCC 29213 incubated for 18 hrs by twofold microdilution method; assay type: functional
[4] = system: Staphylococcus epidermidis; experiment: Antimicrobial activity against Staphylococcus epidermidis ATCC 12228 incubated for 18 hrs by twofold microdilution method; assay type: functional
SW-620 = experiment: Cytotoxicity against human SW620 cells incubated for 72 hrs by MTT assay; assay type: functional, cell-based; conditions: SW-620, 72 h
SW480 = experiment: Cytotoxicity against human SW480 cells incubated for 72 hrs by MTT assay; assay type: functional, cell-based; conditions: SW480, 72 h
Mitochondrial membrane [5] = experiment: Induction of mitochondrial membrane potential loss in human MDA-MB-231 cells assessed as green fluorescence at IC50 incubated for 48 hrs MitoTracker Green FM staining based flow cytometry analysis (reference value: 8.86 %); assay type: cell membranes
A549 [6] = experiment: Induction of mitochondrial respiration in human A549 cells assessed as oxygen consumption rate at 0.1 to 10 uM by Oxygraph-2K system; assay type: functional, cell-based; conditions: dose 0.1-10 µM
MDA-MB-231 [7] = experiment: Induction of ROS generation of human MDA-MB-231 cells at IC50 incubated for 6 hrs by CellROX Green staining based spectrofluorometer analysis; assay type: functional, cell-based
A549 [8] = experiment: Effect on mitochondrial function in human A549 cells assessed as change in mean fluorescence intensity at IC50 incubated for 48 hrs by MitoTracker Red CMXRos staining based flow cytometry analysis; assay type: functional, cell-based
Mitochondrial membrane [9] = experiment: Induction of mitochondrial membrane potential loss in human A549 cells assessed as red fluorescence at IC50 incubated for 48 hrs MitoTrackerRed CMXRos staining based flow cytometry analysis (reference value: 91.1 %); assay type: cell membranes
Staphylococcus aureus [10] = experiment: Antimicrobial activity against Staphylococcus aureus ATCC 6538 incubated for 18 hrs by twofold microdilution method; assay type: functional
Mitochondrial membrane [11] = experiment: Induction of mitochondrial membrane potential loss in human A549 cells assessed as green fluorescence at IC50 incubated for 48 hrs MitoTracker Green FM staining based flow cytometry analysis (reference value: 8.93 %); assay type: cell membranes
Pseudomonas aeruginosa = experiment: Antimicrobial activity against Pseudomonas aeruginosa ATCC 15442 incubated for 18 hrs by twofold microdilution method; assay type: functional
[12] = Selectivity index, ratio of IC50 for cytotoxicity against human HaCaT cells to IC50 for cytotoxicity against human SW480 cells; assay type: toxicity, cell-based; conditions: HaCaT cells versus SW480 cells, read-out: Ratio IC50
Staphylococcus aureus [13] = experiment: Antimicrobial activity against Staphylococcus aureus NCTC 4163 incubated for 18 hrs by twofold microdilution method; assay type: functional
[14] = Cytotoxicity against chinese hamster V79 cells incubated for 72 hrs by MTT assay; assay type: toxicity, cell-based, Cricetulus griseus
Lipid bilayer [15] = experiment: Induction of ionic transport in azolectin bilayer membrane assessed as irregular disturbance in membrane permeability in presence of HEPES buffer by electrophysiology technique
Mitochondrial membrane [16] = experiment: Induction of mitochondrial membrane potential loss in human MDA-MB-231 cells assessed as red fluorescence at IC50 incubated for 48 hrs MitoTrackerRed CMXRos staining based flow cytometry analysis (reference value: 91.1 %); assay type: cell membranes
[17] = Selectivity index, ratio of IC50 for cytotoxicity against chinese hamster V79 cells to IC50 for cytotoxicity against human SW620 cells; assay type: toxicity, cell-based; conditions: V79 cells versus SW620 cells, read-out: Ratio IC50
A549 [18] = experiment: Induction of apoptosis in human A549 cells assessed as necrotic cells at IC50 incubated for 72 hrs by Annexin V-FITC staining based flow cytometry analysis (reference value: 0.97 %); assay type: functional
A549 [19] = experiment: Induction of ROS generation of human A549 cells at IC50 incubated for 6 hrs by CellROX Green staining based spectrofluorometer analysis; assay type: functional, cell-based
[20] = Selectivity index, ratio of IC50 for cytotoxicity against human HaCaT cells to IC50 for cytotoxicity against human A549 cells; assay type: toxicity, cell-based; conditions: HaCaT cells versus A549 cells, read-out: Ratio IC50
A549 [21] = experiment: Induction of apoptosis in human A549 cells assessed as viable cells at IC50 incubated for 72 hrs by Annexin V-FITC staining based flow cytometry analysis (reference value: 95.49 %); assay type: functional
MDA-MB-231 [22] = experiment: Cytotoxicity against human MDA-MB-231 cells incubated for 72 hrs by MTT assay; assay type: functional, cell-based; conditions: MDA-MB-231, 72 h
MDA-MB-231 [23] = experiment: Effect on mitochondrial mass in human MDA-MB-231 cells assessed as increase in mean fluorescence intensity at IC50 incubated for 48 hrs by MitoTracker Green FM staining based flow cytometry analysis; assay type: functional, cell-based
Lipid bilayer [24] = experiment: Induction of ionic transport in azolectin bilayer membrane assessed as membrane rupture in presence of HEPES buffer by electrophysiology technique
Lipid bilayer [25] = experiment: Induction of current generation in azolectin bilayer membrane upto 10 uM in presence of HEPES buffer by electrophysiology technique; assay type: cell membranes
MDA-MB-231 [26] = experiment: Induction of apoptosis in human MDA-MB-231 cells assessed as late apoptotic cells at IC50 incubated for 72 hrs by Annexin V-FITC staining based flow cytometry analysis (reference value: 3.07 %); assay type: functional
MDA-MB-231 [27] = experiment: Induction of apoptosis in human MDA-MB-231 cells assessed as necrotic cells at IC50 incubated for 72 hrs by Annexin V-FITC staining based flow cytometry analysis (reference value: 1.17 %); assay type: functional
A549 [28] = experiment: Induction of apoptosis in human A549 cells assessed as early apoptotic cells at IC50 incubated for 72 hrs by Annexin V-FITC staining based flow cytometry analysis (reference value: 1.68 %); assay type: functional
MDA-MB-231 [29] = experiment: Induction of apoptosis in human MDA-MB-231 cells assessed as early apoptotic cells at IC50 incubated for 72 hrs by Annexin V-FITC staining based flow cytometry analysis (reference value: 4.23 %); assay type: functional
PC-3 = experiment: Cytotoxicity against human PC-3 cells incubated for 72 hrs by MTT assay; assay type: functional, cell-based; conditions: PC-3, 72 h
Lipid bilayer [30] = experiment: Induction of ionic transport in azolectin bilayer membrane assessed as specific channel-like structure formation in presence of HEPES buffer by electrophysiology technique
A549 [31] = experiment: Induction of apoptosis in human A549 cells assessed as late apoptotic cells at IC50 incubated for 72 hrs by Annexin V-FITC staining based flow cytometry analysis (reference value: 1.86 %); assay type: functional
Escherichia coli = experiment: Antimicrobial activity against Escherichia coli ATCC 25922 incubated for 18 hrs by twofold microdilution method; assay type: functional
A549 [32] = experiment: Effect on mitochondrial mass in human A549 cells assessed as increase in mean fluorescence intensity at IC50 incubated for 48 hrs by MitoTracker Green FM staining based flow cytometry analysis; assay type: functional, cell-based
[33] = system: Staphylococcus epidermidis; experiment: Antimicrobial activity against Staphylococcus epidermidis ATCC 35984 incubated for 18 hrs by twofold microdilution method; assay type: functional
[34] = Selectivity index, ratio of IC50 for cytotoxicity against human HaCaT cells to IC50 for cytotoxicity against human PC-3 cells; assay type: toxicity, cell-based; conditions: HaCaT cells versus PC-3 cells, read-out: Ratio IC50
[35] = Selectivity index, ratio of IC50 for cytotoxicity against chinese hamster V79 cells to IC50 for cytotoxicity against human PC-3 cells; assay type: toxicity, cell-based; conditions: V79 cells versus PC-3 cells, read-out: Ratio IC50
[36] = Selectivity index, ratio of IC50 for cytotoxicity against chinese hamster V79 cells to IC50 for cytotoxicity against human SW480 cells; assay type: toxicity, cell-based; conditions: V79 cells versus SW480 cells, read-out: Ratio IC50
MDA-MB-231 [37] = experiment: Induction of apoptosis in human MDA-MB-231 cells assessed as viable cells at IC50 incubated for 72 hrs by Annexin V-FITC staining based flow cytometry analysis (reference value: 91.53 %); assay type: functional
[38] = Selectivity index, ratio of IC50 for cytotoxicity against human HaCaT cells to IC50 for cytotoxicity against human SW620 cells; assay type: toxicity, cell-based; conditions: HaCaT cells versus SW620 cells, read-out: Ratio IC50
[39] = Selectivity index, ratio of IC50 for cytotoxicity against chinese hamster V79 cells to IC50 for cytotoxicity against human MDA-MB-231 cells; assay type: toxicity, cell-based; conditions: V79 cells versus MDA-MB-231 cells, read-out: Ratio IC50
A549 [40] = experiment: Cytotoxicity against human A549 cells incubated for 72 hrs by MTT assay; assay type: functional, cell-based; conditions: A549, 72 h
[41] = Selectivity index, ratio of IC50 for cytotoxicity against chinese hamster V79 cells to IC50 for cytotoxicity against human A549 cells; assay type: toxicity, cell-based; conditions: V79 cells versus A549 cells, read-out: Ratio IC50
Staphylococcus aureus [42] = experiment: Antimicrobial activity against Staphylococcus aureus ATCC 25923 incubated for 18 hrs by twofold microdilution method; assay type: functional
[43] = Selectivity index, ratio of IC50 for cytotoxicity against human HaCaT cells to IC50 for cytotoxicity against human MDA-MB-231 cells; assay type: toxicity, cell-based; conditions: HaCaT cells versus MDA-MB-231 cells, read-out: Ratio IC50

## CC[C@@H](C(=O)[C@@H](C)[C@@H](O)[C@H](C)[C@@H]1O[C@@H]([C@@H](CC)C(=O)O)CC[C@@H]1C)[C@H]1O[C@]2(C=C[C@@H](O)[C@]3(CC[C@@](C)([C@H]4CC[C@](O)(CC)[C@H](C)O4)O3)O2)[C@H](C)C[C@@H]1C [SALINOMYCIN]
MDA-MB-231 [1]
  Activity: Active
[2]
  IC50 at 72 h: 800 nM
Staphylococcus aureus [3]
  MIC: 0.5 µg/mL (≈ 0.666 µM)
[4]
  MIC: 0.5 µg/mL (≈ 0.666 µM)
SW-620
  IC50: 1810 nM
SW480
  IC50: 1360 nM
Mitochondrial membrane [5]
  Activity: 23.4%
A549 [6]
  Activity: inactive
MDA-MB-231 [7]
  Activity: Active; Slight Insignificant Increase In Ros Level Was Observed
A549 [8]
  Activity: inactive
Mitochondrial membrane [9]
  Activity: 91.2%
Staphylococcus aureus [10]
  MIC: 0.5 µg/mL (≈ 0.666 µM)
Mitochondrial membrane [11]
  Activity: 18.8%
Pseudomonas aeruginosa
  MIC: > 256 µg/mL
[12]
  selectivity ratio: 0.6
Staphylococcus aureus [13]
  MIC: 0.5 µg/mL (≈ 0.666 µM)
[14]
  IC50 at 72 h: 1440 nM
Lipid bilayer [15]
  Activity: inactive
Mitochondrial membrane [16]
  Activity: 76.7%
[17]
  selectivity ratio: 0.8
A549 [18]
  Activity: 3.67%
A549 [19]
  Activity: Active; Slight Insignificant Increase In Ros Level Was Observed
[20]
  selectivity ratio: 0.4
A549 [21]
  Activity: 84.56%
MDA-MB-231 [22]
  IC50: 1220 nM
MDA-MB-231 [23]
  Activity: Active; Slight Increase In Mfi Is Observed
Lipid bilayer [24]
  Activity: inactive
Lipid bilayer [25]
  Activity: inactive
MDA-MB-231 [26]
  Activity: 11.49%
MDA-MB-231 [27]
  Activity: 2.97%
A549 [28]
  Activity: 9.72%
MDA-MB-231 [29]
  Activity: 8.6%
PC-3
  IC50: 3000 nM
Lipid bilayer [30]
  Activity: inactive
A549 [31]
  Activity: 2.05%
Escherichia coli
  MIC: > 256 µg/mL
A549 [32]
  Activity: Active; Slight Increase In Mfi Is Observed
[33]
  MIC: 1 µg/mL (≈ 1.33 µM)
[34]
  selectivity ratio: 0.3
[35]
  selectivity ratio: 0.5
[36]
  selectivity ratio: 1.1
MDA-MB-231 [37]
  Activity: 76.94%
[38]
  selectivity ratio: 0.4
[39]
  selectivity ratio: 1.2
A549 [40]
  IC50: 1860 nM
[41]
  selectivity ratio: 0.8
Staphylococcus aureus [42]
  MIC: 0.5 µg/mL (≈ 0.666 µM)
[43]
  selectivity ratio: 0.66
